# Laboratory results: US20230045196A1, “METHODS OF CONTROLLING OR PREVENTING INFESTATION OF PEANUT PLANTS BY PHYTOPATHOGENIC MICROORGANISMS” (SYNGENTA CROP PROTECTION AG, priority 2019, published 2023)
# Test system: Cercospora arachidicola
# Experiment: Peanut field trial, in-furrow soil application at planting, leafspot disease severity
# Type: in vivo, Cercospora arachidicola on peanut (Arachis hypogaea)
# Settings: 63 days after planting, peanut Ga 09b, COMPOUND 1 SC450 200 g AI/ha, Fluopyram SC500 250 g AI/ha
# Protocol: A peanut field trial was carried out in […], Georgia, USA, to evaluate the efficacy of different compounds against the leafspot disease Cercospora arachidicola. Plot borders (peanuts) were planted in early May and left untreated until there was significant leafspot infection on the borders.
# The peanuts were then planted in July and treatments applied in-furrow at the same day. The disease occurred mid of September and an assessment on disease severity (% infected area) was done 63 days after planting.
# Pest Severity, 63 Days after Planting
compound,measurement,setting,value
O=C(NCCc1ncc(C(F)(F)F)cc1Cl)c1ccccc1C(F)(F)F [Fluopyram],% efficacy based on pest severity,,52.64%
same,% efficacy based on pest severity,listed as commercial standard compound 2,53%
same,Pest severity (%),% infected area,"15,A %"
